Data on 37 substances can be found in patent US8969516B2, “Method of hydrolysis of peptide bond” (priority 2006, dated 2015).

This series in a line: MALDI-TOF screening of Ni^2+ dependent hydrolysis in a combinatorial peptide library. It counts as physicochemical. The following applies: CH3CO-Gly-Ala-Ser-X-His-Z-Lys-Phe-Leu-NH2 library, Ni^2+ 2 mM, pH 8.2, 10 mM Tris, score=24/tm. The procedure, abridged: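 Ni2+ 2 mM, peptide pool 1 mM (total), 10 mM Tris pH 8.2; 37 °C and 45 °C in parallel; MS aliquots at 2/4/6/8 h; products detected visually. X: all proteinogenic residues except Asp, Glu, Cys; Z: all except Cys.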

As to Ac-GASIHHKFL-NH2 [SIHH], the “hydrolysis score from MALDI-TOF screening” value (shortened to “hydrolysis score”) is recorded as 3 (a score of 3 for detection at 8 hours) (37° C.) and 3 (a score of 3 for detection at 8 hours) (45° C.).
On to Ac-GASIHIKFL-NH2 [SIHI], for which the “hydrolysis score” value was 3 (a score of 3 for detection at 8 hours) (37° C.) and 3 (a score of 3 for detection at 8 hours) (45° C.).
As to Ac-GASIHKKFL-NH2 [SIHK], the “hydrolysis score” value reads like this: (37° C.) 3 (a score of 3 for detection at 8 hours); (45° C.) 4 (a score of 4 for detection at 6 hours).
For Ac-GASIHMKFL-NH2 [SIHM] the same measures were 0 (a score of 0 if no trace of the product of hydrolysis was seen after 8 hours of incubation) and 0 (a score of 0 if no trace of the product of hydrolysis was seen after 8 hours of incubation).
For Ac-GASIHNKFL-NH2 [SIHN] the same measures were 0 (a score of 0 if no trace of the product of hydrolysis was seen after 8 hours of incubation) and 0 (a score of 0 if no trace of the product of hydrolysis was seen after 8 hours of incubation).
For the substance Ac-GASIHPKFL-NH2 [SIHP], the “hydrolysis score” value (37° C.) is on record as 0 (a score of 0 if no trace of the product of hydrolysis was seen after 8 hours of incubation) and the “hydrolysis score” value (45° C.) is 0 (a score of 0 if no trace of the product of hydrolysis was seen after 8 hours of incubation).
As to Ac-GASIHQKFL-NH2 [SIHQ], the “hydrolysis score” value is 0 (a score of 0 if no trace of the product of hydrolysis was seen after 8 hours of incubation) (37° C.) and 0 (a score of 0 if no trace of the product of hydrolysis was seen after 8 hours of incubation) (45° C.).
As to Ac-GASIHRKFL-NH2 [SIHR], the “hydrolysis score” value (37° C.) is given as 3 (a score of 3 for detection at 8 hours) and the “hydrolysis score” value (45° C.) is 3 (a score of 3 for detection at 8 hours).
With Ac-GASIHSKFL-NH2 [SIHS], the “hydrolysis score” value reads like this: (37° C.) 0 (a score of 0 if no trace of the product of hydrolysis was seen after 8 hours of incubation); (45° C.) 0 (a score of 0 if no trace of the product of hydrolysis was seen after 8 hours of incubation).
As for Ac-GASIHTKFL-NH2 [SIHT], the “hydrolysis score” value by setting is: (37° C.) 0 (a score of 0 if no trace of the product of hydrolysis was seen after 8 hours of incubation); (45° C.) 0 (a score of 0 if no trace of the product of hydrolysis was seen after 8 hours of incubation).
In the case of Ac-GASIHVKFL-NH2 [SIHV], the “hydrolysis score” value was 3 (a score of 3 for detection at 8 hours) (37° C.) and 3 (a score of 3 for detection at 8 hours) (45° C.).
Ac-GASIHWKFL-NH2 [SIHW]: the “hydrolysis score” value is reported as 3 (a score of 3 for detection at 8 hours) (37° C.) and 3 (a score of 3 for detection at 8 hours) (45° C.).
As to Ac-GASIHYKFL-NH2 [SIHY], the “hydrolysis score” value by setting is: (37° C.) 0 (a score of 0 if no trace of the product of hydrolysis was seen after 8 hours of incubation); (45° C.) 0 (a score of 0 if no trace of the product of hydrolysis was seen after 8 hours of incubation).
Consider Ac-GASKHAKFL-NH2 [SKHA], for which the “hydrolysis score” value runs as follows: (37° C.) 0 (a score of 0 if no trace of the product of hydrolysis was seen after 8 hours of incubation); (45° C.) 0 (a score of 0 if no trace of the product of hydrolysis was seen after 8 hours of incubation).
For Ac-GASKHDKFL-NH2 [SKHD], the “hydrolysis score” value reads like this: (37° C.) 0 (a score of 0 if no trace of the product of hydrolysis was seen after 8 hours of incubation); (45° C.) 0 (a score of 0 if no trace of the product of hydrolysis was seen after 8 hours of incubation).
For the substance Ac-GASKHEKFL-NH2 [SKHE], the “hydrolysis score” value reads like this: (37° C.) 0 (a score of 0 if no trace of the product of hydrolysis was seen after 8 hours of incubation); (45° C.) 3 (a score of 3 for detection at 8 hours).
Turning to Ac-GASKHFKFL-NH2 [SKHF], the “hydrolysis score” value (37° C.) is given as 4 (a score of 4 for detection at 6 hours) and the “hydrolysis score” value (45° C.) is given as 4 (a score of 4 for detection at 6 hours).
For the substance Ac-GASKHGKFL-NH2 [SKHG], the “hydrolysis score” value is recorded as 0 (a score of 0 if no trace of the product of hydrolysis was seen after 8 hours of incubation) (37° C.) and 0 (a score of 0 if no trace of the product of hydrolysis was seen after 8 hours of incubation) (45° C.).
On to Ac-GASKHHKFL-NH2 [SKHH], for which the “hydrolysis score” value is, setting by setting: (37° C.) 4 (a score of 4 for detection at 6 hours); (45° C.) 3 (a score of 3 for detection at 8 hours).
In the case of Ac-GASKHIKFL-NH2 [SKHI], the “hydrolysis score” value runs as follows: (37° C.) 6 (a score of 6 for detection at 4 hours); (45° C.) 12 (a score of 12, if it was seen to be partially hydrolysed at 2 hours).
For Ac-GASKHKKFL-NH2 [SKHK], the “hydrolysis score” value is listed as 6 (a score of 6 for detection at 4 hours) (37° C.) and 12 (a score of 12, if it was seen to be partially hydrolysed at 2 hours) (45° C.).
For Ac-GASKHMKFL-NH2 [SKHM] the same measures were 3 (a score of 3 for detection at 8 hours) and 4 (a score of 4 for detection at 6 hours).
As to Ac-GASKHNKFL-NH2 [SKHN], the “hydrolysis score” value is 0 (a score of 0 if no trace of the product of hydrolysis was seen after 8 hours of incubation) (37° C.) and 0 (a score of 0 if no trace of the product of hydrolysis was seen after 8 hours of incubation) (45° C.).
On to Ac-GASKHPKFL-NH2 [SKHP], for which the “hydrolysis score” value runs as follows: (37° C.) 0 (a score of 0 if no trace of the product of hydrolysis was seen after 8 hours of incubation); (45° C.) 0 (a score of 0 if no trace of the product of hydrolysis was seen after 8 hours of incubation).
In the case of Ac-GASKHQKFL-NH2 [SKHQ], the “hydrolysis score” value is 0 (a score of 0 if no trace of the product of hydrolysis was seen after 8 hours of incubation) (37° C.) and 0 (a score of 0 if no trace of the product of hydrolysis was seen after 8 hours of incubation) (45° C.).
In the case of Ac-GASKHTKFL-NH2 [SKHT], the “hydrolysis score” value reads like this: (37° C.) 0 (a score of 0 if no trace of the product of hydrolysis was seen after 8 hours of incubation); (45° C.) 0 (a score of 0 if no trace of the product of hydrolysis was seen after 8 hours of incubation).
With Ac-GASKHVKFL-NH2 [SKHV], the “hydrolysis score” value reads like this: (37° C.) 4 (a score of 4 for detection at 6 hours); (45° C.) 6 (a score of 6 for detection at 4 hours).
Regarding Ac-GASKHWKFL-NH2 [SKHW], the “hydrolysis score” value by setting is: (37° C.) 12 (a score of 12, if it was seen to be partially hydrolysed at 2 hours); (45° C.) 12 (a score of 12, if it was seen to be partially hydrolysed at 2 hours).
For Ac-GASKHYKFL-NH2 [SKHY], the “hydrolysis score” value reads like this: (37° C.) 4 (a score of 4 for detection at 6 hours); (45° C.) 4 (a score of 4 for detection at 6 hours).
As to Ac-GASLHAKFL-NH2 [SLHA], the “hydrolysis score” value is 0 (a score of 0 if no trace of the product of hydrolysis was seen after 8 hours of incubation) (37° C.) and 0 (a score of 0 if no trace of the product of hydrolysis was seen after 8 hours of incubation) (45° C.).
As to Ac-GASLHDKFL-NH2 [SLHD], the “hydrolysis score” value is, setting by setting: (37° C.) 0 (a score of 0 if no trace of the product of hydrolysis was seen after 8 hours of incubation); (45° C.) 0 (a score of 0 if no trace of the product of hydrolysis was seen after 8 hours of incubation).
Ac-GASLHEKFL-NH2 [SLHE]: the “hydrolysis score” value is recorded as 0 (a score of 0 if no trace of the product of hydrolysis was seen after 8 hours of incubation) (37° C.) and 0 (a score of 0 if no trace of the product of hydrolysis was seen after 8 hours of incubation) (45° C.).
Consider Ac-GASLHFKFL-NH2 [SLHF], for which the “hydrolysis score” value by setting is: (37° C.) 0 (a score of 0 if no trace of the product of hydrolysis was seen after 8 hours of incubation); (45° C.) 3 (a score of 3 for detection at 8 hours).
The like results for Ac-GASLHGKFL-NH2 [SLHG] were, in that order, 0 (a score of 0 if no trace of the product of hydrolysis was seen after 8 hours of incubation) and 0 (a score of 0 if no trace of the product of hydrolysis was seen after 8 hours of incubation).
For Ac-GASLHHKFL-NH2 [SLHH] the same measures were 0 (a score of 0 if no trace of the product of hydrolysis was seen after 8 hours of incubation) and 0 (a score of 0 if no trace of the product of hydrolysis was seen after 8 hours of incubation).
Ac-GASLHIKFL-NH2 [SLHI]: the “hydrolysis score” value (37° C.) is recorded as 3 (a score of 3 for detection at 8 hours) and the “hydrolysis score” value (45° C.) was 0 (a score of 0 if no trace of the product of hydrolysis was seen after 8 hours of incubation).
The like results for Ac-GASLHKKFL-NH2 [SLHK] were, in that order, 3 (a score of 3 for detection at 8 hours) and 4 (a score of 4 for detection at 6 hours).
